Data on 2 compounds can be found in US6630502B2, “Method for preventing, stabilizing or causing regression of atherosclerosis employing a combination of a cholesterol lowering drug and an ace inhibitor” (E.R. Squibb & Sons, Inc., priority 1990, dated 2003).

Data set [1] in a line: Plasma lipids of cholesterol-fed hamsters (control and treated). The format is in vivo, hamster. Particulars: mean ± SD, at 5 weeks, pravastatin 34 mg/kg/day, captopril 100 mg/kg/day, combination 33 + 100 mg/kg/day. The procedure:
(§1) Male F1 hamsters were fed 0.3% cholesterol and 10% coconut oil.
Four sets of hamsters were established (n=12-13 per group). […] All animals were fed the same atherogenic diet. Pravastatin was delivered via the diet and captopril was gavaged daily. Hamsters in the control and pravastatin groups were gavaged with water. The animals were treated for 8 weeks. […] At 8 weeks, mean arterial pressure and heart rate were measured and then the animals were fixed by perfusing formalin. The aortic arch was stained with oil red O and the total area of the fatty streak (which consists of macrophage-foam cells) was measured by computer assisted image analysis.

The nature of data set [2]: Body weight, mean arterial pressure and heart rate of cholesterol-fed hamsters treated for 8 weeks. Conditions: at 8 weeks. The format is in vivo, hamster. How it is done: as §1
(§2) Four sets of hamsters were established (n=12-13 per group). The groups were controls, pravastatin (34 mg/kg/day), captopril (100 mg/kg/day) and pravastatin plus captopril (32 and 100 mg/kg/day, respectively). All animals were fed the same atherogenic diet. Pravastatin was delivered via the diet and captopril was gavaged daily. Hamsters in the control and pravastatin groups were gavaged with water. The animals were treated for 8 weeks. At 3 and 6 weeks the animals were fasted overnight and bled to determine plasma cholesterols and triglycerides. At 8 weeks, mean arterial pressure and heart rate were measured and then the animals were fixed by perfusing formalin. The aortic arch was stained with oil red O and the total area of the fatty streak (which consists of macrophage-foam cells) was measured by computer assisted image analysis.

Experiment in data set [3]: as above
The format is in vivo, hamster. Conditions: mean ± SD, combination 33 + 100 mg/kg/day; for HR (Heart Rate) / MAP (Mean Arterial Pressure): at 8 weeks, pravastatin 34 mg/kg/day, captopril 100 mg/kg/day; for Body Weight: hamsters on atherogenic diet, 8 weeks, pravastatin 34 mg/kg/day (diet), captopril 100 mg/kg/day (gavage).

For data set [4], the system named is fatty streak (macrophage-foam cells) of the aortic arch. Put plainly: Fatty streak area in the aortic arch (oil red O, image analysis) of cholesterol-fed hamsters. The format is in vivo, hamster. Conditions: 8 weeks; for Fatty Streak Area: mean ± SD, 6 arches per group, pravastatin 34 mg/kg/day, captopril 100 mg/kg/day, combination 33 + 100 mg/kg/day. The procedure:
as §1
as §2, with “The groups were controls, pravastatin (34 mg/kg/day), captopril (100 mg/kg/day) and pravastatin plus captopril (32 and 100 mg/kg/day, respectively).” left out

For data set [5] the following is noted: hypercholesterolemic patients; cited from earlier work.

Marks after values point to notes of the source that are not given here.

Turning to `C[C@H](CS)C(=O)N1CCC[C@H]1C(=O)O` [Captopril, 1-[(2S)-3-mercapto-2-methylpropionyl]-L-proline], in data set [1], the HDL-C was 72 ± 23 mg/dL, the TC was 660 ± 94 mg/dL, the TG was determined as 1105 ± 259 mg/dL and the “VLDL + LDL-C” value was determined as 588 ± 83 mg/dL. Moreover, in data set [2] (compared with control hamsters), the “heart rate less than control hamsters” value came out at 7% and the “mean arterial pressure lower than controls” value is reported as 21%. Further, in data set [3], the “HR (Heart Rate)” value is 348 ± 22^a beats/min, the “MAP (Mean Arterial Pressure)” value is reported as 110 ± 17^a mmHg and the “Body Weight” value is on record as 133 ± 12 g. In addition, in data set [4], the “reduction of fatty streak (lesion) area compared to control group” value is given as “approximately 50%” and the “Fatty Streak Area” value is 245 ± 154^c μm^2 × 10^3. Also, in data set [5], the “change of serum cholesterol” value is listed as −18% and the “increase of HDL” value is 27%.
Consider `CC[C@H](C)C(=O)O[C@H]1C[C@H](O)C=C2C=C[C@H](C)[C@H](CC[C@@H](O)C[C@@H](O)CC(=O)O)[C@H]21` [Pravastatin, pravastatin], for which, in data set [1], the HDL-C is 117 ± 7^a mg/dl, the TC is recorded as 456 ± 107^a mg/dl, the TG is given as 185 ± 34^a mg/dl and the “VLDL + LDL-C” value is 339 ± 93^a mg/dl. Also, in data set [2] (34 mg/kg/day), the “effect on blood pressure” value is “no effect” and the “effect on heart rate” value is recorded as “no effect”. Further, in data set [3], the “HR (Heart Rate)” value is listed as 355 ± 27 beats/min, the “MAP (Mean Arterial Pressure)” value was determined as 138 ± 13 mmHg and the “Body Weight” value is listed as 139 ± 8 g. Moreover, in data set [4], the “reduction of fatty streak (lesion) area compared to control group” value was “approximately 50%” and the “Fatty Streak Area” value is listed as 248 ± 119^b μm^2 × 10^3.
